Assay results taken from patent US11021444B2, “Antiviral compounds” (priority 2013, dated 2021).
Read-outs that look alike come from different tables or passages of the source.

Key:
[1] = test system: Respiratory Syncytial Virus (RSV) long strain; test: microbe, parasite or virus in culture; format: cell-based; settings: human respiratory syncytial virus, Tables A and B list compounds by EC50 band
Experimental: (§1) CPE reduction assays are performed as described by Sidwell and Huffman et al., Appl. Microbiol. (1971) 22(5):797-801 with slight modifications. HEp-2 cells (ATCC #, CCL-23) are seeded at a density of 1,500 cells/30 μl/well into the 384-well cell plate(s) (Corning #3701) one day prior to the assay. Compounds are added into 384-well cell plates by Labcyte POD 810 Plate Assembler system. Each of the test compounds is provided to duplicate wells of a 384-well cell plate at final concentrations starting from 100 μM or 1 μM using 1/3 stepwise dilutions for 9 points. Quick-thaw Respiratory Syncytial Virus (RSV) long strain (ATCC #VR-26) stock in a 37° C. water bath. Place on ice until ready to use. Viruses are diluted to the concentration of 100 TCID50/30 μL with medium and 30 μl diluted RSV are added into related wells of 384-well cell plates. For each plate, sixteen wells are set aside as uninfected, untreated cell controls (CC), and nine wells per test plate receive virus only as a control for virus replication (VC). The final DMSO concentration of all wells is 1%. Place the plates at 37° C., 5% CO2 for 5 days.
After 5 days incubation, observe the CPE of cells in all wells. […] Six μl of cell counting kit-8 reagent (CCK-8, Dojindo Molecular Technologies Inc., CK04-20) are added to each well, which allows colorimetric assays to determine the number of viable cells through the dehydrogenase activity detection. After 3-4 hour incubation, the absorbance of each well is measured with a spectrophotometric plate reader at 450 nm wavelength, using a 630 nm filter as background according to manufacturer's instruction.

recombinant RSV complex = recombinant RSV complex (Human respiratory syncytial virus A, UniProt P28887); test: RSV Polymerase Inhibition Assay; format: biochemical
Experimental: Standard RSV polymerase assays were conducted in the presence of 10 nM recombinant RSV complex in a reaction buffer containing Tris-HCl pH7.5, 6 mM MgCl2, and other additives and substrates including RNA oligonucleotides and radionucleotides. Standard reactions were incubated in 96-well plate format for 2 h at 30° C., in the presence of increasing concentration of inhibitor. The reaction was stopped with 90 μL of 0.1M EDTA, and the reaction product was transferred to a “reading” 96-well plate. After washing of the plate, radiolabeled RNA products were detected according to standard procedures with a Trilux Topcount scintillation counter.

[2] = Cytotoxicity Determination (CCK-8, without addition of virus); format: cell-based; settings: human, 50% cytotoxicity concentration (CC50)
Experimental: as §1
In order to determine the compound cytotoxicity, in parallel, each of the compounds is applied to duplicate wells in a 384-well cell plate at serial final concentrations starting from 100 μM using 1/2 stepwise dilutions for 7 points without addition of virus. Incubate the cells at 37° C., 5% CO2 for 5 days. Add 6 μL CCK-8 into each well and incubate in a CO2 incubator at 37° C. for 3-4 hours.

[3] = HEp-2, 120 h, read-out: 50% effective concentration (EC50), HEp-2 cells infected with RSV long strain, 5 days, CCK-8 readout
[4] = 120 h, read-out: 50% effective concentration (EC50), HEp-2 cells infected with RSV long strain, 5 days, CCK-8 readout

Chain of recombinant RSV complex (P28887 whole entry): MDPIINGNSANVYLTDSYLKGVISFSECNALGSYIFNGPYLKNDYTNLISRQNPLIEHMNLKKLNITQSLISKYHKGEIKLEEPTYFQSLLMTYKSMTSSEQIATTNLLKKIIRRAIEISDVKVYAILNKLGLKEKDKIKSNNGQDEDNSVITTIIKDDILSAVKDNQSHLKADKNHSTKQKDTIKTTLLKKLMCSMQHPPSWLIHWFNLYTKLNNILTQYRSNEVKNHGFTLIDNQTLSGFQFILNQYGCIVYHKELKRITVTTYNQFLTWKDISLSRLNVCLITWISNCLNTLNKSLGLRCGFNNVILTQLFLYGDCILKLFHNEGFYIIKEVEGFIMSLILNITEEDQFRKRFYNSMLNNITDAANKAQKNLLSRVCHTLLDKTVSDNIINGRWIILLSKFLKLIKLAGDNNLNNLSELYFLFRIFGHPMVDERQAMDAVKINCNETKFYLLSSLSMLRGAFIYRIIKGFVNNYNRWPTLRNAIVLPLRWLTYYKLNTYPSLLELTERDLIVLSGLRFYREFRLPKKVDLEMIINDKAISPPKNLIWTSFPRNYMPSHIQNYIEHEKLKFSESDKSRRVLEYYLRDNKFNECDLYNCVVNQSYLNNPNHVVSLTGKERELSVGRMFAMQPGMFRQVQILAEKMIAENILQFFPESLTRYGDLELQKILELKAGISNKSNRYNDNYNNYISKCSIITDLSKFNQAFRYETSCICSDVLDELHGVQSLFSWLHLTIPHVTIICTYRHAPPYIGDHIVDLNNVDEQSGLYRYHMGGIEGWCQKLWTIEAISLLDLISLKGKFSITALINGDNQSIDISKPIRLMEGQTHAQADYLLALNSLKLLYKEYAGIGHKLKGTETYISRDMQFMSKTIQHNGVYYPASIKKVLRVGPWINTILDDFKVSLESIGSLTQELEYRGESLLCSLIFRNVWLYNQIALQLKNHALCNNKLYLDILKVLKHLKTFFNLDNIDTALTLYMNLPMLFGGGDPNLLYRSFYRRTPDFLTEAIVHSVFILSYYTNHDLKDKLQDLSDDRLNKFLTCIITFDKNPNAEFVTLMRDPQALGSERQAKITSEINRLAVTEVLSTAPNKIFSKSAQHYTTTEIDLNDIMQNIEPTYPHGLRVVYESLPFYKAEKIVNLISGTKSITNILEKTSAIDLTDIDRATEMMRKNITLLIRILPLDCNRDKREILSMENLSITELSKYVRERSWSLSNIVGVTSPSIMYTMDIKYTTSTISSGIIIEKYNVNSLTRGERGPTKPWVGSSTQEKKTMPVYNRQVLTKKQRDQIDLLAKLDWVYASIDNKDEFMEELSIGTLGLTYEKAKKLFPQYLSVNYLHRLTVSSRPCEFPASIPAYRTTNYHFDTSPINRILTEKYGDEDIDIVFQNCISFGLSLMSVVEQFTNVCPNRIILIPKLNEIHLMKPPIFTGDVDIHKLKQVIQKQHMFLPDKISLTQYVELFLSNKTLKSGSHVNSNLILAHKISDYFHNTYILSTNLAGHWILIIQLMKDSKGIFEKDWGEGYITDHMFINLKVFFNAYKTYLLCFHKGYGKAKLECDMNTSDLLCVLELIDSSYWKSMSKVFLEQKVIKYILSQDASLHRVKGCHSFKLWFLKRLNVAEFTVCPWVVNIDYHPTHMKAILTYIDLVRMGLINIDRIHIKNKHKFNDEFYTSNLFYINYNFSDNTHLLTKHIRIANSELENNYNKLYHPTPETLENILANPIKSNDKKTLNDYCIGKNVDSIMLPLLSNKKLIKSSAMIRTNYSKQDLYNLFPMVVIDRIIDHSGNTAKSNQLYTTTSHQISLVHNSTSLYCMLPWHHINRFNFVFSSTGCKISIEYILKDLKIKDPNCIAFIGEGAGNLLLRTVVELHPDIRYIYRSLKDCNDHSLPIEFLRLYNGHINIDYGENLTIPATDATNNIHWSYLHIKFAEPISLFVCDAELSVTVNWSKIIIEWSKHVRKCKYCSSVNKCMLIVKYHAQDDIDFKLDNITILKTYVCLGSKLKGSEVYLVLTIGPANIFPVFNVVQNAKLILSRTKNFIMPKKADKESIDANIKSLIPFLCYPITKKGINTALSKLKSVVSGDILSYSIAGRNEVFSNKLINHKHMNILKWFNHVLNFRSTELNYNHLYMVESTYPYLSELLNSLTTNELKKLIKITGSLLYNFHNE
Chain of recombinant RSV complex (P03421 whole entry, further chain): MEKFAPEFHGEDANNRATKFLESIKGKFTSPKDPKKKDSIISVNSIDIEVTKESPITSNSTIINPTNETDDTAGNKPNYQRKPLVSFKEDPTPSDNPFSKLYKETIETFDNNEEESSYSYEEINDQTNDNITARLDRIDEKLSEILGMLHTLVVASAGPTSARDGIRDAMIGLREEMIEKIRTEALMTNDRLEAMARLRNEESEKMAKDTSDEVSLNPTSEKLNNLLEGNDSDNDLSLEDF

Structure (SMILES)	EC50 [1, 3] [nM]	IC50 (recombinant RSV complex) [nM]	CC50 at 5 days [2] [µM]	EC50 [1, 4] [nM]
COc1cc(C(=O)NC[C@@](O)(c2cc3c(c(-c4ccc(C#N)cc4)n2)OC[C@]3(C)N)C(F)(F)F)ccc1OCCO [Compound 604b]	1000 to 50000	< 10000	> 100	
COc1cc(C(=O)NCC(O)(c2cc3c(c(-c4ccc(F)c(Cl)c4)n2)OCC3(C)C)C(F)(F)F)ccc1OCC(N)=O (stereo not drawn) [Compound 210]		< 1000	10 to 100	< 1000
COc1ccc(C(=O)NCC(C)(O)c2cccc(-c3csc4c(F)cccc34)n2)cc1OC (stereo not drawn) [Compound 142]	< 1000	< 1000	10 to 100	
COc1ccc(C(O)(CNC(=O)c2ccc3c(c2)NC(=O)CO3)C(F)(F)F)nc1-c1ccc(F)c(Cl)c1 (stereo not drawn) [Compound 258]	< 1000	< 1000	10 to 100	
COc1cc(C(=O)NC[C@](O)(c2cc3c(c(-c4ccc(F)cc4)n2)OC[C@]3(C)N)C(F)(F)F)ccc1OC[C@@H](C)O [Compound 631]	< 1000	< 1000	10 to 100	
CC(C)(N)c1cc(-c2ccc(F)c(Cl)c2)nc(C(O)(CNC(=O)c2cncs2)C(F)(F)F)c1 (stereo not drawn) [Compound 278]	1000 to 50000	< 1000	10 to 100	
COc1cc(C(=O)NCC(O)(c2cc3c(c(-c4ccc(Cl)c(F)c4)n2)OCC3(C)N)C(F)(F)F)ccc1CO[C@@H](C)O (stereo partly drawn) [Compound 666]	< 1000	< 1000	10 to 100	
COc1cc(C(=O)NCC(=O)c2cc3c(c(-c4c[nH]c5c(F)cccc45)n2)OCC3)ccc1OCCF [Compound 287]	< 1000	< 1000	> 100	
COc1cc(C(=O)NCC(F)c2ccc(OC)c(-c3ccc(F)c(Cl)c3)n2)ccc1OCCO (stereo not drawn) [Compound 149]	1000 to 50000	< 10000	10 to 100	
CC(C)(N)c1cc(-c2ccc(F)c(Cl)c2)nc(C(O)(CNC(=O)c2cn3cccnc3n2)C(F)(F)F)c1 (stereo not drawn) [Compound 477]	1000 to 50000	< 10000	10 to 100	
COc1cc(C(=O)NC[C@@](O)(c2cc(C(C)(C)N)cc(-c3ccc(F)cc3)n2)C(F)(F)F)ccc1OC1CC1 [Compound 495]	< 1000	< 1000	10 to 100	
COc1cc(C(=O)NCC(O)(c2cc3c(c(-c4c[nH]c5c(F)cccc45)n2)OCC3)C2CC2)ccc1OCCO (stereo not drawn) [Compound 297]	< 1000	< 1000	10 to 100	
COc1cc(C(=O)NCC(O)(CN(C)C)c2ccc(OC)c(-c3ccc(F)c(Cl)c3)n2)ccc1OCCO (stereo not drawn) [Compound 178]	1000 to 50000	< 100000	> 100	
COc1cc(C(=O)NCC(O)(c2ccc(OCCN)c(-c3ccc(F)cc3)n2)C(F)(F)F)ccc1OC1CC1 (stereo not drawn) [Compound 479]	< 1000	< 1000	10 to 100	
COc1cc(C(=O)NCC(O)(c2cc(C(C)(C)N)cc(-c3ccc(I)nc3)n2)C(F)(F)F)ccc1OC1CC1 (stereo not drawn) [Compound 557]	< 1000	< 1000	10 to 100	
COc1cc(C(=O)NCC(O)(c2ccc(OC)c(-c3ccc(F)c(Cl)c3)n2)C(F)(F)F)ccc1OCC(F)(F)F (stereo not drawn) [Compound 233]	1000 to 50000	< 1000	> 100	

Structure (SMILES)	EC50 [1, 3] [nM]	IC50 (recombinant RSV complex) [nM]	CC50 at 5 days [2] [µM]	EC50 [1, 4] [nM]
COc1cc(C(=O)NCC(F)(F)c2ccc(OC)c(-c3ccc(F)c(Cl)c3)n2)ccc1OCCO [Compound 150]		< 10000	> 100	1000 to 50000
COc1ccc(C(O)(CNC(=O)c2ccc3ncoc3c2)C(F)(F)F)nc1-c1ccc(F)c(Cl)c1 (stereo not drawn) [Compound 266]	1000 to 50000	< 1000	10 to 100	
COc1cc(C(=O)NCC(O)(c2ccc(OC)c(-c3ccc(F)c(Cl)c3)n2)C(F)(F)F)ccc1OCC(N)=O (single isomer, unassigned) [Compound 238]	< 1000	< 1000	10 to 100	
COc1cc(C(=O)NCC(O)(CO)c2cc3c(c(-c4ccc(F)c(Cl)c4)n2)OCC3(C)C)ccc1OC1CCNC1=O (stereo not drawn) [Compound 219]	< 1000	< 1000	10 to 100	
COc1ccc(C(O)(CNC(=O)c2ccc3[nH]c(=O)n(C)c3c2)C(F)(F)F)nc1-c1ccc(F)c(Cl)c1 (stereo not drawn) [Compound 267]	< 1000	< 1000	10 to 100	
COc1cc(C(=O)NCC(C)(O)c2ncc(OC)c(-c3ccc(F)c(Cl)c3)n2)ccc1OCCO (stereo not drawn) [Compound 109]	1000 to 50000	< 10000	> 100	
COc1cc(C(=O)NCC(O)(c2cc3c(c(-c4ccc(F)cc4)n2)OCC3(N)C(C)C)C(F)(F)F)ccc1OC[C@@H](C)O (stereo partly drawn) [Compound 568]	< 1000	< 1000	10 to 100	
COc1cc(C(=O)NCC(C)(O)c2cc3c(c(-c4ccc(F)c(Cl)c4)n2)NCC3)ccc1OCCF (stereo not drawn) [Compound 286]	1000 to 50000	< 10000	10 to 100	
CNc1ccc(C(O)(CNC(=O)c2ccc(OC3CC3)c(OC)c2)C(F)(F)F)nc1-c1ccc(F)c(Cl)c1 (stereo not drawn) [Compound 451]	< 1000	< 1000	> 100	
COc1ccc(C(O)(CNC(=O)c2ccc3c(c2)ncn3C)C(F)(F)F)nc1-c1ccc(F)c(Cl)c1 (stereo not drawn) [Compound 265]	1000 to 50000	< 10000	10 to 100	
COc1cc(C(=O)NCC(O)(c2cc3c(c(-c4ccc(F)c(Cl)c4)n2)OCC3(C)C)C(F)(F)F)cc2ccc(C)nc12 (stereo not drawn) [Compound 213]	< 1000	< 1000	> 100	
COc1cc(C(=O)NC[C@@](O)(c2cc3c(c(-c4ccc(F)cc4)n2)OCC3(C)CN)C(F)(F)F)ccc1OCCO (stereo partly drawn) [Compound 633a]	1000 to 50000	< 1000	10 to 100	
COc1cc(C(=O)NCC(O)(c2cc3c(c(-c4ccc(F)cc4)n2)OCC3(N)C(C)C)C(F)(F)F)ccc1OCCO (stereo not drawn) [Compound 565]	< 1000	< 1000	10 to 100	
COc1cc(C(=O)NCC(O)(c2ccc(OC)c(-c3ccc(F)c(Cl)c3)n2)C(F)(F)F)ccc1OC1CCOC1 (stereo not drawn) [Compound 235]	< 1000	< 1000	10 to 100	
COc1cc(C(=O)NCC(O)c2cccc(-c3csc4c(F)cccc34)n2)ccc1OCCO (stereo not drawn) [Compound 165]	1000 to 50000	< 10000	10 to 100	
COc1cc(C(=O)NCC(O)(c2ccc(OC)c(-c3ccc(F)c(Cl)c3)n2)C(F)(F)F)ccc1OCC(C)(F)F (stereo not drawn) [Compound 234]	< 1000	< 1000	> 100	
